According to patent US10865216B2, “Tricyclic Gyrase inhibitors” (MERCK SHARP & DOHME CORP., priority 2012, dated 2020):
Values after ≈ are worked out from the molar mass of the structure shown.

Key:
S. aureus ATCC 13709 = assay: MIC, S. aureus ATCC 13709; type: cell-based; settings: S. aureus; Alamar Blue read after overnight incubation at 35° C.
E. coli ATCC 25922 = assay: MIC, E. coli ATCC 25922; type: cell-based; settings: E. coli; Alamar Blue read after overnight incubation at 35° C.

SMILES	MIC Sa (S. aureus ATCC 13709)	MIC Ec (E. coli ATCC 25922)
CNc1cc(F)cc2c1[nH]c1nc(Oc3cnc(SC)nc3)nc(N3CC4CC(N)C4C3)c12 (stereo not drawn) [Compound 4.201]	≤0.5 µg/mL	≤0.5 µg/mL
CNc1cc(F)cc2c1[nH]c1nc(Oc3cncc(-c4cncnc4)c3)nc(N3CC4C(N)C4C3)c12 (stereo not drawn) [Compound 4.205]	≤0.5 µg/mL	≤0.5 µg/mL
CNc1cc(F)cc2c1[nH]c1nc(Oc3cncc(-c4cn[nH]c4)c3)nc(N3CC4C(N)C4C3)c12 (stereo not drawn) [Compound 4.206]	≤0.5 µg/mL	4 µg/mL (≈ 8.48 µM)
CNc1cc(F)cc2c1[nH]c1nc(Oc3cnc(N(C)C)nc3)nc(N3CC4C(N)C4C3)c12 (stereo not drawn) [Compound 4.208]	≤0.5 µg/mL	≤0.5 µg/mL
CNc1cc(F)cc2c1[nH]c1nc(Oc3cncc(-c4nnn(C)n4)c3)nc(N3CC4C(N)C4C3)c12 (stereo not drawn) [Compound 4.210]	≤0.5 µg/mL	1 µg/mL (≈ 2.05 µM)
CNc1cc(F)cc2c1[nH]c1nc(Oc3cnc(N4CCOCC4)nc3)nc(N3CC4C(N)C4C3)c12 (stereo not drawn) [Compound 4.211]	16 µg/mL (≈ 32.6 µM)	>16 µg/mL
CNc1cc(F)cc2c1[nH]c1nc(Oc3cnc(N4CCOCC4)nc3)nc(N3CC[C@@H](N)C3)c12 [Compound 4.212]	≤0.5 µg/mL	≤0.5 µg/mL
CNc1cc(F)cc2c1[nH]c1nc(Oc3cnc(N4CCOCC4)nc3)nc(N3CCC(CN)C3)c12 (stereo not drawn) [Compound 4.215]	≤0.5 µg/mL	4 µg/mL (≈ 8.1 µM)
CNc1ncc(Oc2nc(N3CC4C(N)C4C3)c3c(n2)[nH]c2c(NC)cc(F)cc23)cn1 (stereo not drawn) [Compound 4.218]	≤0.5 µg/mL	≤0.5 µg/mL
CNc1ncc(Oc2nc(N3CC4CC(N)C4C3)c3c(n2)[nH]c2c(NC)cc(F)cc23)cn1 (stereo not drawn) [Compound 4.221]	≤0.5 µg/mL	2 µg/mL (≈ 4.45 µM)
CNc1cc(F)cc2c1[nH]c1nc(Oc3cnc(NC4CC4)nc3)nc(N3CC[C@@H](N)C3)c12 [Compound 4.222]	≤0.5 µg/mL	≤0.5 µg/mL
CNc1cc(F)cc2c1[nH]c1nc(Oc3cnc(NC4CC4)nc3)nc(N3CC4C(N)C4C3)c12 (stereo not drawn) [Compound 4.223]	≤0.5 µg/mL	≤0.5 µg/mL
CNc1cc(F)cc2c1[nH]c1nc(Oc3cnc(-c4nn[nH]n4)nc3)nc(N3CC[C@@H](N)C3)c12 [Compound 4.224]	1 µg/mL (≈ 2.16 µM)	>16 µg/mL
CNc1cc(F)cc2c1[nH]c1nc(Oc3cnc4c(c3)ncn4C)nc(N3CC[C@@H](N)C3)c12 [Compound 4.225]	≤0.5 µg/mL	2 µg/mL (≈ 4.47 µM)
CNc1cc(F)cc2c1[nH]c1nc(Oc3cnc4c(c3)ncn4C)nc(N3CC4CC(N)C4C3)c12 (stereo not drawn) [Compound 4.226]	≤0.5 µg/mL	2 µg/mL (≈ 4.22 µM)
CNc1cc(F)cc2c1[nH]c1nc(Oc3cnc(N4CCN(C(C)=O)CC4)nc3)nc(N3CC[C@@H](N)C3)c12 [Compound 4.229]	≤0.5 µg/mL	2 µg/mL (≈ 3.84 µM)
CNc1cc(F)cc2c1[nH]c1nc(Oc3ccnnc3)nc(N3CC(N)C4(CC4)C3)c12 (stereo not drawn) [Compound 4.230]	32 µg/mL (≈ 76.1 µM)	>16 µg/mL
CNc1cc(F)cc2c1[nH]c1nc(Oc3cnc(C(C)C)nc3)nc(N3CC4C(N)C4C3)c12 (stereo not drawn) [Compound 4.232]	≤0.5 µg/mL	≤0.5 µg/mL
CNc1cc(F)cc2c1[nH]c1nc(Oc3cnc(C(C)C)nc3)nc(N3CC4CC(N)C4C3)c12 (stereo not drawn) [Compound 4.234]	≤0.5 µg/mL	1 µg/mL (≈ 2.16 µM)

SMILES	MIC Sa (S. aureus ATCC 13709)	MIC Ec (E. coli ATCC 25922)
CNc1cc(F)cc2c1[nH]c1nc(Oc3cncc(C(N)=O)c3)nc(N3CC4CC(N)C4C3)c12 (stereo not drawn) [Compound 4.236]	≤0.5 µg/mL	≤0.5 µg/mL
CNc1cc(F)cc2c1[nH]c1nc(Oc3cncc(C(N)=O)c3)nc(N3CC4C(N)C4C3)c12 (stereo not drawn) [Compound 4.237]	≤0.5 µg/mL	2 µg/mL (≈ 4.46 µM)
CNc1cc(F)cc2c1[nH]c1nc(Oc3cnc(C4CC4)nc3)nc(N3CC4CC(N)C4C3)c12 (stereo not drawn) [Compound 4.240]	≤0.5 µg/mL	≤0.5 µg/mL
CNc1cc(F)cc2c1[nH]c1nc(Oc3cnc(C4CC4)nc3)nc(N3CC4C(N)C4C3)c12 (stereo not drawn) [Compound 4.241]	≤0.5 µg/mL	≤0.5 µg/mL
CNc1cc(F)cc2c1[nH]c1nc(Oc3cnc(C4CC4)nc3)nc(N3CC4CC4(CN)C3)c12 (stereo not drawn) [Compound 4.246]	≤0.5 µg/mL	≤0.5 µg/mL
CNc1cc(F)cc2c1[nH]c1nc(Oc3cnc(C4CC4)nc3)nc(N3CC4C(CN)C4C3)c12 (stereo not drawn) [Compound 4.249]	≤0.5 µg/mL	≤0.5 µg/mL
CNc1cc(F)cc2c1[nH]c1nc(Oc3cnc(C4CC4)nc3)nc(N3CC4CCNC4C3)c12 (stereo not drawn) [Compound 4.250]	≤0.5 µg/mL	≤0.5 µg/mL
CNc1cc(F)cc2c1[nH]c1nc(Oc3cnc(C4CC4)nc3)nc(N3CC4CCC(N)C4C3)c12 (stereo not drawn) [Compound 4.251]	≤0.5 µg/mL	≤0.5 µg/mL
CNc1cc(F)cc2c1[nH]c1nc(Oc3cnc(C4CC4)nc3)nc(C3CCC4(CC3)NC(=O)NC4=O)c12 (stereo not drawn) [Compound 4.252]	>16 µg/mL	>16 µg/mL
CNc1cc(F)cc2c1[nH]c1nc(Oc3cnc(C4CC4)nc3)nc(N3CC4CCC(CN)C4C3)c12 (stereo not drawn) [Compound 4.253]	≤0.5 µg/mL	≤0.5 µg/mL
CNc1cc(F)cc2c1[nH]c1nc(Oc3ccc4c(c3)C(=O)NC4)nc(N3CC(N)C4(CC4)C3)c12 (stereo not drawn) [Compound 4.265]	≤0.5 µg/mL	4 µg/mL (≈ 8.45 µM)
CNc1cc(F)cc2c1[nH]c1nc(Oc3ccc4c(c3)C(=O)NC4)nc(N3CC4CCNC4C3)c12 (stereo not drawn) [Compound 4.269]	≤0.5 µg/mL	4 µg/mL (≈ 8.45 µM)
CNc1cc(F)cc2c1[nH]c1nc(Oc3ccc4c(c3)C(=O)NC4)nc(N3CC4(CCC4N)C3)c12 (stereo not drawn) [Compound 4.270]	≤0.5 µg/mL	2 µg/mL (≈ 4.22 µM)
CNc1cc(F)cc2c1[nH]c1nc(Oc3cncc(Cl)c3)nc(N3CC4C(N)C4C3)c12 (stereo not drawn) [Compound 4.272]	≤0.5 µg/mL	≤0.5 µg/mL
CNc1cc(F)cc2c1[nH]c1nc(Oc3cncc(Cl)c3)nc(N3CC(N)C4(CC4)C3)c12 (stereo not drawn) [Compound 4.273]	≤0.5 µg/mL	2 µg/mL (≈ 4.41 µM)
CNc1cc(F)cc2c1[nH]c1nc(Oc3cncc(Cl)c3)nc(N3CC(N)C3)c12 [Compound 4.277]	≤0.5 µg/mL	≤0.5 µg/mL
CNc1cc(F)cc2c1[nH]c1nc(Oc3cnc(C4CCC4)nc3)nc(N3CC4C(N)C4C3)c12 (stereo not drawn) [Compound 4.286]	≤0.5 µg/mL	≤0.5 µg/mL
CNc1cc(F)cc2c1[nH]c1nc(Oc3ccc4c(N)nc(C)nc4c3)nc(N3CC4C(N)C4C3)c12 (stereo not drawn) [Compound 4.288]	4 µg/mL (≈ 8.24 µM)	>16 µg/mL

Results, then the compound that gave them:

MIC Sa (S. aureus ATCC 13709)	MIC Ec (E. coli ATCC 25922)	SMILES
≤0.5 µg/mL	≤0.5 µg/mL	CNc1cc(F)cc2c1[nH]c1nc(Oc3cnc(SC)nc3)nc(N3CC4(CC[C@H]4N)C3)c12 [Compound 4.202]
≤0.5 µg/mL	≤0.5 µg/mL	CNc1cc(F)cc2c1[nH]c1nc(Oc3cnc(SC)nc3)nc(N3CCC4(C[C@H]4N)C3)c12 (stereo partly drawn) [Compound 4.203]
≤0.5 µg/mL	≤0.5 µg/mL	CNc1cc(F)cc2c1[nH]c1nc(Oc3cnc(N(C)C)nc3)nc(N3CC[C@@H](N)C3)c12 [Compound 4.207]
≤0.5 µg/mL	≤0.5 µg/mL	CNc1cc(F)cc2c1[nH]c1nc(Oc3cnc(N(C)C)nc3)nc(N3CC(N)C4(CC4)C3)c12 (stereo not drawn) [Compound 4.209]
≤0.5 µg/mL	1 µg/mL (≈ 1.98 µM)	CNc1cc(F)cc2c1[nH]c1nc(Oc3cnc(N4CCOCC4)nc3)nc(N3CC(N)C4(CC4)C3)c12 (stereo not drawn) [Compound 4.213]
≤0.5 µg/mL	2 µg/mL (≈ 3.96 µM)	CNc1cc(F)cc2c1[nH]c1nc(Oc3cnc(N4CCOCC4)nc3)nc(N3CCC4(CC4N)C3)c12 (stereo not drawn) [Compound 4.214]
≤0.5 µg/mL	≤0.5 µg/mL	CNc1ncc(Oc2nc(N3C[C@H](N)C4(CC4)C3)c3c(n2)[nH]c2c(NC)cc(F)cc23)cn1 [Compound 4.216]
≤0.5 µg/mL	≤0.5 µg/mL	CNc1ncc(Oc2nc(N3CC[C@@H](N)C3)c3c(n2)[nH]c2c(NC)cc(F)cc23)cn1 [Compound 4.219]
≤0.5 µg/mL	≤0.5 µg/mL	CNc1ncc(Oc2nc(N3CCC4(CC4N)C3)c3c(n2)[nH]c2c(NC)cc(F)cc23)cn1 (stereo not drawn) [Compound 4.220]
≤0.5 µg/mL	≤0.5 µg/mL	CNc1cc(F)cc2c1[nH]c1nc(Oc3cnc(C(C)C)nc3)nc(N3CCC4(CC4N)C3)c12 (stereo not drawn) [Compound 4.235]
≤0.5 µg/mL	≤0.5 µg/mL	CNc1cc(F)cc2c1[nH]c1nc(Oc3cnc(C4CC4)nc3)nc(N3CC4(CCC4N)C3)c12 (stereo not drawn) [Compound 4.244]
≤0.5 µg/mL	≤0.5 µg/mL	CCc1ncc(Oc2nc(N3CC4C(N)C4C3)c3c(n2)[nH]c2c(NC)cc(F)cc23)cn1 (stereo not drawn) [Compound 4.258]
≤0.5 µg/mL	≤0.5 µg/mL	CCc1ncc(Oc2nc(N3CC(N)C4(CC4)C3)c3c(n2)[nH]c2c(NC)cc(F)cc23)cn1 (stereo not drawn) [Compound 4.259]
≤0.5 µg/mL	1 µg/mL (≈ 2.23 µM)	CCc1ncc(Oc2nc(N3CC4CC4(CN)C3)c3c(n2)[nH]c2c(NC)cc(F)cc23)cn1 (stereo not drawn) [Compound 4.261]
≤0.5 µg/mL	≤0.5 µg/mL	CCc1ncc(Oc2nc(N3CCC(N)C3)c3c(n2)[nH]c2c(NC)cc(F)cc23)cn1 (stereo not drawn) [Compound 4.262]
≤0.5 µg/mL	≤0.5 µg/mL	CCc1ncc(Oc2nc(N3CCC4(CC4N)C3)c3c(n2)[nH]c2c(NC)cc(F)cc23)cn1 (stereo not drawn) [Compound 4.263]
≤0.5 µg/mL	≤0.5 µg/mL	CNc1cc(F)cc2c1[nH]c1nc(Oc3cnc(C4CCC4)nc3)nc(N3CC(N)C4(CC4)C3)c12 (stereo not drawn) [Compound 4.287]
